Some test systems named below: HCC-2998 colon; HT29 colon; MALME-3M melanoma; MDA-MB-231 breast; NCI-H226 lung; NCI-H23 lung; OVCAR-4 ovarian; OVCAR-5 ovarian; SK-MEL-2 melanoma; SK-MEL-5 melanoma.
Common to all, as to experiment: DTP human tumour cell line panel, 48 h

Experimental findings from PubChem BioAssay (NCI) are described below.

Several values for one entry are separate records, joined by “and”; a condition that tells them apart may be missing. Identical values can stand only once.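 Compound exposure: 48 hours, 5 concentrations, 96-well plates. Here, GI50 denotes the concentration required for 50% inhibition of growth. The concentration for full growth arrest is given as TGI.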

One may read the GI50 as the concentration that inhibits growth by half. The term TGI denotes the concentration at which net growth stops. High values mean less potent growth arrest, low ones more potent growth arrest.

For `CCOC(=O)c1ccc2c(c1)[n+](=O)c(C(=O)c1ccc3ccccc3c1)c(C(F)(F)F)n2[O-]`, the GI50 with HCC-2998 colon is 1.65 µM; in the test on HT29 colon, 1.08 µM; in the test with MALME-3M melanoma, 1.68 µM; with MDA-MB-231 breast, 1.58 µM; with NCI-H226 lung, 1.74 µM; in the test with NCI-H23 lung it was 0.496 µM. Also, the GI50 is 0.261 µM with OVCAR-4 ovarian, 1.3 µM in the test with OVCAR-5 ovarian, 1.82 µM with SK-MEL-2 melanoma and 1.45 µM with SK-MEL-5 melanoma. Also, the TGI worked out at 3.03 µM in the test with HCC-2998 colon; 2.27 µM in the test with HT29 colon; 3.46 µM with MALME-3M melanoma; 3.15 µM in the test on MDA-MB-231 breast; 3.57 µM in the test with NCI-H226 lung; 1.79 µM in the test with NCI-H23 lung. The TGI in the test with OVCAR-4 ovarian stood at 0.848 µM; in the test with OVCAR-5 ovarian, 2.57 µM; in the test on SK-MEL-2 melanoma it was 3.4 µM; in the test on SK-MEL-5 melanoma, 2.78 µM.

On to `CCOc1cc(C=O)c2c(ccc3ccc(OC)c(OC)c32)c1OC`, for which the TGI in the test on HCC-2998 colon, in the test on HT29 colon, in the test with MALME-3M melanoma, with MDA-MB-231 breast, in the test with NCI-H226 lung and with NCI-H23 lung was above 100 µM throughout. Besides, the TGI in the test with OVCAR-4 ovarian, with OVCAR-5 ovarian, with SK-MEL-2 melanoma and with SK-MEL-5 melanoma was above 100 µM each time.

In the case of `CCc1ccc(CCC(=O)Nc2ncc(Cc3cc(Cl)ccc3Cl)s2)o1`, the GI50 was 2.99 µM with HCC-2998 colon; 1.17 µM in the test on HT29 colon; 1.38 µM in the test on MALME-3M melanoma; 2.16 µM with MDA-MB-231 breast; 3.61 µM in the test on NCI-H226 lung; 2.49 µM in the test on NCI-H23 lung. In addition, the GI50 with OVCAR-4 ovarian was 1.78 µM; in the test with OVCAR-5 ovarian it was 2.21 µM; in the test with SK-MEL-2 melanoma it was 2.66 µM; in the test with SK-MEL-5 melanoma, 1.21 µM. Also, the TGI with HCC-2998 colon was above 50 µM; with HT29 colon, above 50 µM; with MALME-3M melanoma, above 50 µM; in the test with MDA-MB-231 breast, 15.6 µM; in the test with NCI-H226 lung, above 50 µM; in the test on NCI-H23 lung, above 50 µM. In addition, the TGI in the test with OVCAR-4 ovarian is 12.6 µM; with OVCAR-5 ovarian it was above 50 µM; in the test on SK-MEL-2 melanoma it was above 50 µM; in the test with SK-MEL-5 melanoma it was above 50 µM.

`CCOC(=O)C1=C(N)Oc2c(sc3c(C)cccc23)C1c1ccc(Cl)cc1` (centres undefined): the GI50 with HCC-2998 colon was 2.32 µM; with HT29 colon, 3.16 µM; with MALME-3M melanoma it was 5.19 µM; in the test with MDA-MB-231 breast, 4.29 µM; in the test on NCI-H226 lung, 5.02 µM; with NCI-H23 lung, 2.5 µM. Further, the GI50 with OVCAR-4 ovarian is 6.92 µM; with OVCAR-5 ovarian, 4.03 µM; with SK-MEL-2 melanoma, 5.83 µM; in the test with SK-MEL-5 melanoma it was 4.04 µM. For the same compound, the TGI in the test with HCC-2998 colon stood at 6.63 µM; with HT29 colon, 11.8 µM; in the test on MALME-3M melanoma, 19.6 µM; with MDA-MB-231 breast, 17.4 µM; in the test on NCI-H226 lung, 19.8 µM; in the test on NCI-H23 lung, 10.5 µM. The TGI came to 21 µM in the test with OVCAR-4 ovarian, 15.7 µM in the test on OVCAR-5 ovarian, 22.4 µM in the test on SK-MEL-2 melanoma and 14.4 µM in the test on SK-MEL-5 melanoma.

In the case of `COc1cc(C(=O)NC2CCN(C)CC2)ccc1Nc1ncc2c(n1)N(C1CCCC1)CC(F)(F)C(=O)N2C`, the GI50 was below 0.0166 µM in the test with HCC-2998 colon; below 0.01 µM with HT29 colon; 2.64 µM in the test with MALME-3M melanoma; below 0.0186 µM in the test on MDA-MB-231 breast; 2.17 µM with NCI-H226 lung; below 0.0114 µM in the test with NCI-H23 lung. The GI50 was 0.264 µM in the test with OVCAR-4 ovarian, 0.0188 µM in the test on OVCAR-5 ovarian, 2.23 µM in the test on SK-MEL-2 melanoma and below 0.0311 µM in the test with SK-MEL-5 melanoma. Further, the TGI worked out at 2.2 µM in the test on HCC-2998 colon; 11.1 µM with HT29 colon; 10.5 µM with MALME-3M melanoma; 17.3 µM in the test on MDA-MB-231 breast; 14.3 µM in the test with NCI-H226 lung; 2.98 µM in the test with NCI-H23 lung. Further, the TGI in the test with OVCAR-4 ovarian was 12.5 µM; in the test on OVCAR-5 ovarian, 12.1 µM; with SK-MEL-2 melanoma it was 6.56 µM; in the test with SK-MEL-5 melanoma, 1.28 µM.

As to `O=C(Nc1ncc(Cc2ccccc2)s1)c1ccc2c(c1)OCCO2`, the GI50 in the test with HCC-2998 colon was 0.0729 µM; with HT29 colon, 0.0506 µM; with MALME-3M melanoma it was 0.042 µM; with MDA-MB-231 breast, 0.0669 µM; in the test with NCI-H226 lung it was 0.278 µM; in the test on NCI-H23 lung, 0.0679 µM. Further, the GI50 is 0.561 µM in the test with OVCAR-4 ovarian, 0.096 µM in the test with OVCAR-5 ovarian, 0.101 µM with SK-MEL-2 melanoma and 0.0428 µM with SK-MEL-5 melanoma. Further, the TGI is 1.63 µM with HCC-2998 colon; above 22 µM with HT29 colon; above 100 µM in the test with MALME-3M melanoma; 4.03 µM in the test on MDA-MB-231 breast; 7.01 µM in the test on NCI-H226 lung; above 100 µM with NCI-H23 lung. Also, the TGI in the test with OVCAR-4 ovarian is above 100 µM; with OVCAR-5 ovarian, above 100 µM; in the test on SK-MEL-2 melanoma, above 100 µM; in the test on SK-MEL-5 melanoma, 0.454 µM.

`NC(=O)c1nnn(Cc2cc(Cl)c(C(=O)c3ccc(Cl)cc3)c(Cl)c2)c1N`: the GI50 with HCC-2998 colon was 6.15 µM; with HT29 colon it was above 9.09 µM; in the test on MALME-3M melanoma, above 9.09 µM; in the test on NCI-H226 lung it was above 9.09 µM; in the test with NCI-H23 lung it was above 9.09 µM; with OVCAR-4 ovarian it was above 9.09 µM. Also, the GI50 with OVCAR-5 ovarian, in the test on SK-MEL-2 melanoma and in the test on SK-MEL-5 melanoma was above 9.09 µM each time. The TGI is > 9.09 µM and 17.9 µM with HCC-2998 colon; > 9.09 µM and 42 µM with HT29 colon; > 9.09 µM and 44.1 µM in the test with MALME-3M melanoma; above 52.8 µM with MDA-MB-231 breast; > 9.09 µM and 55.8 µM in the test with NCI-H226 lung; > 9.09 µM and 43 µM in the test on NCI-H23 lung. Also, the TGI in the test with OVCAR-4 ovarian was > 9.09 µM and 39.1 µM; with OVCAR-5 ovarian it was above 53.4 µM; in the test on SK-MEL-2 melanoma, above 44 µM; in the test with SK-MEL-5 melanoma, > 9.09 µM and 32.7 µM.

With `COc1ccccc1CNCCCN1C(=O)c2ccc3c4c(ccc(c24)C1=O)C(=O)N(CCCNCCCCNCCCCN)C3=O`, the GI50 in the test with HCC-2998 colon is 1.8 µM; with HT29 colon it was 1.35 µM; in the test with MALME-3M melanoma, 0.971 µM; with MDA-MB-231 breast, 0.944 µM; in the test with NCI-H226 lung it was 1.83 µM; with NCI-H23 lung, 2.43 µM. Also, the concentration for 50% growth inhibition (GI50) in the test on OVCAR-4 ovarian was 0.346 µM; in the test with OVCAR-5 ovarian, 2.23 µM; in the test on SK-MEL-2 melanoma, 1.91 µM; in the test with SK-MEL-5 melanoma, 0.822 µM. In addition, the TGI with HCC-2998 colon is 6.39 µM; with HT29 colon, above 28.2 µM; in the test on MALME-3M melanoma it was 2.48 µM; with MDA-MB-231 breast it was 8.17 µM; in the test on NCI-H226 lung, 6.65 µM; with NCI-H23 lung it was 7.59 µM. The TGI was 1.4 µM in the test with OVCAR-4 ovarian, 7 µM with OVCAR-5 ovarian, 4.87 µM in the test on SK-MEL-2 melanoma and 2.23 µM with SK-MEL-5 melanoma.

`Cn1cc(C2=C(c3c4n(c5ccccc35)CC(CN)C4)C(=O)NC2=O)c2ccccc21` (centres undefined): the GI50 with HCC-2998 colon is 4.01 µM; with HT29 colon, 3.04 µM; with MALME-3M melanoma, 4.17 µM; in the test on MDA-MB-231 breast, 3.78 µM; in the test on NCI-H226 lung, 3.93 µM; with NCI-H23 lung, 4.38 µM. Also, the GI50 in the test on OVCAR-4 ovarian was 2.33 µM; in the test on OVCAR-5 ovarian, 7.16 µM; in the test with SK-MEL-2 melanoma, 1.69 µM; in the test on SK-MEL-5 melanoma it was 3.53 µM. Also, the TGI amounted to 8.02 µM with HCC-2998 colon; 11.8 µM in the test on HT29 colon; 8.52 µM in the test on MALME-3M melanoma; 9.76 µM in the test on MDA-MB-231 breast; 18 µM in the test with NCI-H226 lung; 11.1 µM in the test with NCI-H23 lung. The TGI stood at 10.6 µM in the test with OVCAR-4 ovarian, 22.1 µM in the test on OVCAR-5 ovarian, 5.35 µM with SK-MEL-2 melanoma and 6.89 µM with SK-MEL-5 melanoma.

For `CCCN(CCC)c1ccc(C=O)cc1`, the GI50 was above 67.5 µM in the test with HCC-2998 colon; 52 µM with HT29 colon; above 81.2 µM in the test on MALME-3M melanoma; above 100 µM in the test on MDA-MB-231 breast; 30 µM in the test with NCI-H226 lung; 36.9 µM with NCI-H23 lung. The GI50 in the test on OVCAR-4 ovarian is 26.5 µM; in the test with OVCAR-5 ovarian it was above 100 µM; in the test on SK-MEL-2 melanoma, 98.2 µM; in the test on SK-MEL-5 melanoma, 20.7 µM. Moreover, the total growth inhibition concentration (TGI) in the test with HCC-2998 colon, with HT29 colon, with MALME-3M melanoma, with MDA-MB-231 breast, in the test with NCI-H226 lung and in the test on NCI-H23 lung was above 100 µM throughout. For the same compound, the TGI with OVCAR-4 ovarian is above 100 µM; with OVCAR-5 ovarian, above 100 µM; in the test with SK-MEL-2 melanoma it was above 100 µM; in the test with SK-MEL-5 melanoma, 54.5 µM.

As for `C=C1C(=O)O[C@H]2[C@H]1CC/C(COC(=O)/C=C\C(=O)NCc1ccc(Cn3c(=O)sn(-c4ccc(OC)cc4)c3=O)cc1)=C\CC[C@@]1(C)O[C@@H]21`, the GI50 with HCC-2998 colon is 0.881 µM; in the test with HT29 colon, 0.395 µM; in the test on MALME-3M melanoma, 0.806 µM; with MDA-MB-231 breast, 0.701 µM; in the test with NCI-H226 lung, 1.28 µM; with NCI-H23 lung, 0.863 µM. Also, the GI50 with OVCAR-4 ovarian is 0.706 µM; with OVCAR-5 ovarian, 0.825 µM; in the test on SK-MEL-2 melanoma, 0.882 µM; with SK-MEL-5 melanoma, 0.828 µM. For the same compound, the TGI came to 1.67 µM in the test on HCC-2998 colon; 1.64 µM in the test with HT29 colon; 1.56 µM in the test with MALME-3M melanoma; 1.7 µM in the test with MDA-MB-231 breast; 5.51 µM in the test with NCI-H226 lung; 1.84 µM in the test on NCI-H23 lung. For the same compound, the TGI in the test with OVCAR-4 ovarian stood at 1.39 µM; with OVCAR-5 ovarian, 1.71 µM; in the test on SK-MEL-2 melanoma, 1.94 µM; in the test with SK-MEL-5 melanoma, 1.53 µM.
